Experimental data published in patent US10035800B2 (AbbVie Inc., priority 2013, dated 2018).
Each block holds one compound with its values, some of them ahead of it.

Tests used:
BRD4 (BDI_K57-E168) = molecular target: T1, BRD4 (BDI_K57-E168) (Homo sapiens, UniProt O60885); assay: TR-FRET bromodomain binding assay, first bromodomain of BRD4; conditions: 100 nM probe
T1 construct: BD1: amino acids K57-E168; made in house
Procedure: (§1) Bromodomain Domain Binding Assay
(§2) A time-resolved fluorescence resonance energy transfer (TR-FRET) assay was used to determine the affinities of compounds of the Examples listed in Table 1 for each bromodomain of BRD4. His-tagged first (BD1: amino acids K57-E168) and second (BD2: amino acids […]) bromodomains of BRD4 were expressed and purified. An Alexa647-labeled BET-inhibitor was used as the fluorescent probe in the assay.
(§3) Compound dilution series were prepared in DMSO via an approximately 3-fold serial dilution from one of the following: […]
(§4) Assay method E: 0.47 mM to 7.8 nM […]
(§5) Assay method G: 0.047 mM to 0.78 nM
(§6) or 5-fold serial dilution from one of the following: […]
(§7) Assay method B: 2.5 mM-797 nM […]
(§8) For Assay methods B, E, and G: Compound dilutions were added directly into white, low-volume assay plates (Perkin Elmer Proxiplate 384 Plus#6008280) using a Labcyte Echo in conjunction with Labcyte Access and Thermo Multidrop CombinL robotics. Compounds were then suspended in eight microliters (μL) of assay buffer (20 mM Sodium Phosphate, pH 6.0, 50 mM NaCl, 1 mM Ethylenediaminetetraacetic acid disodium salt dihydrate, 0.01% Triton X-100, 1 mM DL-Dithiothreitol) containing His-tagged bromodomain, Europium-conjugated anti-His antibody (Invitrogen PV5596) and Alexa-647-conjugated probe.
(§9) The final concentration of 1× assay mixture for assay methods A, B, C, D, E, F, and G contains 2% DMSO, 8 nM His-tagged bromodomain, 1 nM Europium-conjugated anti-His-tag antibody and 100 nM or 30 nM probe (for BDI or BDII, respectively) and compound concentration in the range of: 50 μM-16 nM for method A, 49.02 μM-15.63 nM for method B, 25 μM-423 pM for method C, 10 μM-169 pM for method D, 9.19 μM-150 pM for method E, 5 μM-85 pM for method F, and 0.92 μM-15 pM for method G.
(§10) After a one-hour equilibration at room temperature, TR-FRET ratios were determined using an Envision multilabel plate reader (Ex 340, Em 495/520).
(§11) TR-FRET data were normalized to the means of 24 no-compound controls (“high”) and 8 controls containing 1 μM un-labeled probe (“low”). Percent inhibition was plotted as a function of compound concentration and the data were fit with the 4 parameter logistic equation to obtain IC50s. Inhibition constants (Ki) were calculated from the IC50s, probe Kd and probe concentration. Typical Z′ values were between 0.65 and 0.75. The minimum significant ratio was determined to evaluate assay reproducibility (Eastwood et al., (2006) J Biomol Screen, 11: 253-261). The MSR was determined to be 2.03 for BDI and 1.93 for BDII, and a moving MSR (last six run MSR overtime) for both BDI and BDII was typically <3.

BRD4 (BDII_E352-M457) = molecular target: T2, BRD4 (BDII_E352-M457) (Homo sapiens, UniProt O60885); assay: TR-FRET bromodomain binding assay, second bromodomain of BRD4; conditions: 30 nM probe
T2 construct: protocol; made in house
Procedure: as §1, §2, §3, §4, §5, §6, §7, §8, §9, §10, §11

[1] = TR-FRET assay protocol G (compound 0.92 μM-15 pM)
[2] = TR-FRET assay protocol E (compound 9.19 μM-150 pM)

Compound: 10-methyl-7-((methylsulfonyl)methyl)-4-(1-((2-(trimethylsilyl)ethoxy)methyl)-1H-indazol-5-yl)-3,4-dihydro-1H-1,4,10-triazadibenzo[cd,f]azulen-11(10H)-one [Example 233]
Ki (BRD4 (BDI_K57-E168); [1]): 0.00615 µM
Ki (BRD4 (BDII_E352-M457); [1]): 0.00377 µM

Compound: COC(=O)CCC1Nc2ccc(CS(C)(=O)=O)cc2-c2cn(C)c(=O)c3[nH]cc1c23 (racemic) [Example 17, methyl 3-(10-methyl-7-((methylsulfonyl)methyl)-11-oxo-3,4,10,11-tetrahydro-1H-1,4,10-triazadibenzo[cd,f]azulen-3-yl)propanoate]
Ki (BRD4 (BDI_K57-E168); [2]): 0.165 µM
Ki (BRD4 (BDII_E352-M457); [2]): 0.0539 µM

Compound: Cn1cc2c3c(c[nH]c3c1=O)CN(/C=C(/C=C/c1ccccc1)c1ccccc1)c1c(F)cc(F)cc1-2 [Example 57, 4-((1Z,3E)-2,4-diphenylbuta-1,3-dien-1-yl)-5,7-difluoro-10-methyl-3,4-dihydro-1H-1,4,10-triazadibenzo[cd,f]azulen-11(10H)-one]
Ki (BRD4 (BDI_K57-E168); [1]): 0.0647 µM
Ki (BRD4 (BDII_E352-M457); [1]): 0.0906 µM

Compound: CN1CCC(N2Cc3c[nH]c4c(=O)n(C)cc(c34)-c3cc(CS(C)(=O)=O)ccc32)CC1 [Example 181]
Ki (BRD4 (BDI_K57-E168); [1]): 0.00333 µM
Ki (BRD4 (BDII_E352-M457); [1]): 0.0171 µM

Compound: Cn1cc2c3c(c[nH]c3c1=O)CN(c1ccc(F)cc1F)c1ncncc1-2 [Example 83, 4-(2,4-difluorophenyl)-10-methyl-3,4-dihydro-1H-1,4,5,7,10-pentaazadibenzo[cd,f]azulen-11(10H)-one]
Ki (BRD4 (BDI_K57-E168); [1]): > 0.238 µM
Ki (BRD4 (BDII_E352-M457); [1]): > 0.408 µM

Compound: Cn1cc2c3c(c[nH]c3c1=O)CNc1ccc(CS(C)(=O)=O)cc1-2 [Example 5, 10-methyl-7-((methylsulfonyl)methyl)-3,4-dihydro-1H-1,4,10-triazadibenzo[cd,f]azulen-11(10H)-one]
Ki (BRD4 (BDI_K57-E168); [2]): 0.765 µM
Ki (BRD4 (BDII_E352-M457); [2]): 0.758 µM

Compound: CCCCCOC(=O)N1Cc2c[nH]c3c(=O)n(C)cc(c23)-c2cc(CS(C)(=O)=O)ccc21 [Example 88, pentyl 10-methyl-7-((methylsulfonyl)methyl)-11-oxo-10,11-dihydro-1H-1,4,10-triazadibenzo[cd,f]azulene-4(3H)-carboxylate]
Ki (BRD4 (BDI_K57-E168); [1]): 0.00346 µM
Ki (BRD4 (BDII_E352-M457); [1]): 0.00176 µM

Compound: CN(C)C(NCC1c2c[nH]c3c(=O)n(C)cc(c23)-c2cc(CS(C)(=O)=O)ccc2N1c1ccc(F)cc1F)=[N+](C)C (stereo not drawn) [Example 130, N-((((4-(2,4-difluorophenyl)-10-methyl-7-((methylsulfonyl)methyl)-11-oxo-3,4,10,11-tetrahydro-1H-1,4,10-triazadibenzo[cd,f]azulen-3-yl)methyl)amino)(dimethylamino)methylene)-N-methylmethanaminium]
Ki (BRD4 (BDI_K57-E168); [1]): 0.215 µM
Ki (BRD4 (BDII_E352-M457); [1]): 0.0146 µM

Compound: Cn1cc2c3c(c[nH]c3c1=O)CN(C(=O)c1cccc3ccccc13)c1ccc(CS(C)(=O)=O)cc1-2 [Example 114, 4-(1-naphthoyl)-10-methyl-7-((methylsulfonyl)methyl)-3,4-dihydro-1H-1,4,10-triazadibenzo[cd,f]azulen-11(10H)-one]
Ki (BRD4 (BDI_K57-E168); [1]): 0.112 µM
Ki (BRD4 (BDII_E352-M457); [1]): 0.0255 µM

Compound: Cn1cc2c3c(c[nH]c3c1=O)CN(S(=O)(=O)c1ccccc1)c1ccc(CS(C)(=O)=O)cc1-2 [Example 77, 10-methyl-7-((methylsulfonyl)methyl)-4-(phenylsulfonyl)-3,4-dihydro-1H-1,4,10-triazadibenzo[cd,f]azulen-11(10H)-one]
Ki (BRD4 (BDI_K57-E168); [1]): > 0.238 µM
Ki (BRD4 (BDII_E352-M457); [1]): 0.275 µM

Compound: COc1cccc(CC(=O)N2Cc3c[nH]c4c(=O)n(C)cc(c34)-c3cc(CS(C)(=O)=O)ccc32)c1 [Example 104, 4-(2-(3-methoxyphenyl)acetyl)-10-methyl-7-((methylsulfonyl)methyl)-3,4-dihydro-1H-1,4,10-triazadibenzo[cd,f]azulen-11(10H)-one]
Ki (BRD4 (BDI_K57-E168); [1]): 0.0347 µM
Ki (BRD4 (BDII_E352-M457); [1]): 0.0262 µM

Compound: COCCC(=O)N1Cc2c[nH]c3c(=O)n(C)cc(c23)-c2cc(CS(C)(=O)=O)ccc21 [Example 101, 4-(3-methoxypropanoyl)-10-methyl-7-((methylsulfonyl)methyl)-3,4-dihydro-1H-1,4,10-triazadibenzo[cd,f]azulen-11(10H)-one]
Ki (BRD4 (BDI_K57-E168); [1]): 0.00483 µM
Ki (BRD4 (BDII_E352-M457); [1]): 0.00277 µM

Compound: Cn1cc2c3c(c[nH]c3c1=O)CN(S(=O)(=O)c1ccc(Oc3ccccc3)cc1)c1ccc(CS(C)(=O)=O)cc1-2 [Example 79, 10-methyl-7-((methylsulfonyl)methyl)-4-((4-phenoxyphenyl)sulfonyl)-3,4-dihydro-1H-1,4,10-triazadibenzo[cd,f]azulen-11(10H)-one]
Ki (BRD4 (BDI_K57-E168); [1]): > 0.238 µM
Ki (BRD4 (BDII_E352-M457); [1]): > 0.408 µM

Compound: Cn1cc2c3c(c[nH]c3c1=O)CNc1ccc(S(C)(=O)=O)cc1-2 [Example 4, 10-methyl-7-(methylsulfonyl)-3,4-dihydro-1H-1,4,10-triazadibenzo[cd,f]azulen-11(10H)-one]
Ki (BRD4 (BDI_K57-E168); [2]): 2 µM
Ki (BRD4 (BDII_E352-M457); [2]): 3.09 µM

Next, values leading:

Ki (BRD4 (BDI_K57-E168); [1]): 0.00209 µM
Ki (BRD4 (BDII_E352-M457); [1]): 0.00085 µM
Compound: Cn1cc(-c2[nH]c3c(=O)n(C)cc4c3c2CN(c2ccccn2)c2ccc(S(C)(=O)=O)cc2-4)cn1 [Example 275, 10-methyl-2-(1-methyl-1H-pyrazol-4-yl)-7-(methylsulfonyl)-4-(pyridin-2-yl)-3,4-dihydro-1H-1,4,10-triazadibenzo[cd,f]azulen-11(10H)-one]

Ki (BRD4 (BDI_K57-E168); [1]): 0.0932 µM
Ki (BRD4 (BDII_E352-M457); [1]): 0.124 µM
Compound: Cn1cc2c3c(c[nH]c3c1=O)C(C(=O)NCCCCc1ccccc1)N(c1ccc(F)cc1F)c1ccc(CS(C)(=O)=O)cc1-2 (stereo not drawn) [Example 168, 4-(2,4-difluorophenyl)-10-methyl-7-((methylsulfonyl)methyl)-11-oxo-N-(4-phenylbutyl)-3,4,10,11-tetrahydro-1H-1,4,10-triazadibenzo[cd,f]azulene-3-carboxamide]

Ki (BRD4 (BDI_K57-E168); [1]): 0.0589 µM
Ki (BRD4 (BDII_E352-M457); [1]): 0.00635 µM
Compound: (R)—N-ethyl-7-(ethylsulfonyl)-10-methyl-11-oxo-4-(1-phenylpropyl)-3,4,10,11-tetrahydro-1H-1,4,10-triazadibenzo[cd,f]azulene-2-carboxamide [Example 272]

Ki (BRD4 (BDI_K57-E168); [1]): 0.0574 µM
Ki (BRD4 (BDII_E352-M457); [1]): 0.0454 µM
Compound: Cn1cc2c3c(c[nH]c3c1=O)C(C(=O)NCc1cocn1)N(c1ccc(F)cc1F)c1ccc(CS(C)(=O)=O)cc1-2 (stereo not drawn) [Example 163, 4-(2,4-difluorophenyl)-10-methyl-7-((methylsulfonyl)methyl)-N-(oxazol-4-ylmethyl)-11-oxo-3,4,10,11-tetrahydro-1H-1,4,10-triazadibenzo[cd,f]azulene-3-carboxamide]

Ki (BRD4 (BDI_K57-E168); [1]): 0.00372 µM
Ki (BRD4 (BDII_E352-M457); [1]): 0.00918 µM
Compound: CCOCCC(C)N1Cc2c[nH]c3c(=O)n(C)cc(c23)-c2cc(CS(C)(=O)=O)ccc21 (racemic) [Example 153, 4-(4-ethoxybutan-2-yl)-10-methyl-7-((methylsulfonyl)methyl)-3,4-dihydro-1H-1,4,10-triazadibenzo[cd,f]azulen-11(10H)-one]

Ki (BRD4 (BDI_K57-E168); [1]): > 0.238 µM
Ki (BRD4 (BDII_E352-M457); [1]): > 0.408 µM
Compound: Cn1cc2c3c(c[nH]c3c1=O)C(c1cc(C(C)(C)C)cc(C(C)(C)C)c1)N(c1ccc(F)cc1F)c1ccc(CS(C)(=O)=O)cc1-2 (stereo not drawn) [Example 223, 3-(3,5-di-tert-butylphenyl)-4-(2,4-difluorophenyl)-10-methyl-7-((methylsulfonyl)methyl)-3,4-dihydro-1H-1,4,10-triazadibenzo[cd,f]azulen-11(10H)-one]

Ki (BRD4 (BDI_K57-E168); [1]): 0.0471 µM
Ki (BRD4 (BDII_E352-M457); [1]): 0.0604 µM
Compound: Cn1cc2c3c(c[nH]c3c1=O)C(C(=O)NCCO)N(c1ccc(F)cc1F)c1ccc(CS(C)(=O)=O)cc1-2 (stereo not drawn) [Example 162, 4-(2,4-difluorophenyl)-N-(2-hydroxyethyl)-10-methyl-7-((methylsulfonyl)methyl)-11-oxo-3,4,10,11-tetrahydro-1H-1,4,10-triazadibenzo[cd,f]azulene-3-carboxamide]
